Data published in patent US4857513A, “Diphosphonic acid compounds, processes for the preparation thereof and pharmaceutical composition comprising the same” (Fujisiwa Pharmaceutical Co., Ltd., priority 1986, dated 1989).
Counter-ions that a name gives are not always drawn.

Tested on: Neonatal calvaria (hPTH (1-34)-treated)
Experiment: Inhibition of hPTH (1-34)-stimulated bone resorption in cultured neonatal rat calvaria (calcium accumulation in medium at 6 days)
Format: cell-based, rat (Wistar)
Details: 144 h, hPTH (1-34) 1×10^-8 M, 37° C.; for inhibition at 1 µM: Dose 1 × 10^-6 M; for inhibition at 0.1 µM: Dose 1 × 10^-7 M
Description: Neonatal calvaria were dissected aseptically from 1-2 day old rat (Wistar), washed in Dulbecco's modified eagle's medium and divided along the sagittal suture. The calvaria halves were pooled and randomized in the different groups. The calvaria halves were cultured separately as free-floating bones in multi-well dishes containing a 2 ml of Dulbecco's modified eagle's medium, with 10% heat-inactivated (56° C. for 1 hr) fetal calf serum. Treatment of hPTH (1-34) (1×10^-8 M) and the Test Compound (1×10^-7 or 1×10^-6 M) was begun at zero time. All incubations were performed at 37° C., under an atmosphere of 95% air and 5% CO2 for 6 days. Bone resporption was determined by measuring the accumulation of calcium in the medium at 6 days. The concentration of total calcium in culture medium was measured by OCPC method with a spectrophotometer (Hitachi model U-3200, Tokyo, Japan).
As comparative data, similar tests were conducted using culture medium with hPTH (1×10^-8 M) only, and culture medium without both hPTH and Test Compound.
Test results were represented in terms of percentage of inhibition calculated by the following formula: [formula] CD : the concentration of total calcium in culture medium treated with both hPTH and Test Compound
CO : the concentration of total calcium in control culture medium without both hPTH and Test Compound
CP : the concentration of total calcium in culture medium treated with hPTH only

Compound	inhibition at 1 µM [%]	inhibition at 0.1 µM [%]
O=C(NC(P(=O)(O)O)P(=O)(O)O)c1ccc2ccccc2n1 [Test Compound (j), Tris(tert-butylamine)salt of [(2-quinolinecarboxamido)methylene]bis(phosphonic acid)]	53.8	46.9
O=P(O)(O)C(C(=S)Nc1ccc(Cl)cc1)P(=O)(O)O [Test Compound (c), Tris(tert-butylamine)salt of [N-(4-chlorophenyl)thiocarbamoylmethylene]bis(phosphonic acid)]	57	
COc1ccc(NC(=S)C(P(=O)(O)O)P(=O)(O)O)cc1C(F)(F)F [Test Compound (h), Disodium salt of [N-(4-methoxy-3-trifluoromethylphenyl)thiocarbamoylmethylene]bis(phosphonic acid)]	77.7	
O=P(O)(O)C(NS(=O)(=O)c1ccc(Cl)cc1)P(=O)(O)O [Test Compound (k), Disodium salt of [(4-chlorophenyl)sulfonylaminomethylene]bis(phosphonicacid)]	71	
O=P(O)(O)C(C(=S)Nc1ccc(Cl)c(C(F)(F)F)c1)P(=O)(O)O [Test Compound (g), Disodium salt of [N-(4-chloro-3-trifluoromethylphenyl)thiocarbamoylmethylene]bis(phosphonicacid)]	112	
O=P(O)(O)C(C(=S)Nc1cccc(C(F)(F)F)c1)P(=O)(O)O [Test Compound (f), Disodium salt of [N-(3-trifluoromethylphenyl)thiocarbamoylmethylene]bis(phosphonic acid)]	68.9	
O=P(O)(O)C(C(=S)Nc1ccccc1)P(=O)(O)O [Test Compound (a), Tris(tert-butylamine) salt of [N-(phenyl)thiocarbamoylmethylene]bis(phosphonic acid)]	66.3	54.3
O=P(O)(O)C(C(=S)Nc1ccc(C(F)(F)F)cc1)P(=O)(O)O [Test Compound (e), Disodium salt of [N-(4-trifluoromethylphenyl)thiocarbamoylmethylene]bis(phosphonic acid)]	65.9	
CS(=O)(=O)Nc1cccc(NC(=S)C(P(=O)(O)O)P(=O)(O)O)c1 [Test Compound (l), Disodium salt of [N-(3-mesylaminophenyl)thiocarbamoylmethylene]bis(phosphonic acid)]	52.4	
O=C(NC(P(=O)(O)O)P(=O)(O)O)c1cc2ccccc2s1 [Test Compound (i), Bis(tert-butylamine)salt of [(2-benzo[b]thiophenecarboxamido)methylene]bis(phosphonic acid)]		45
O=C(Nc1ccc(Cl)cc1)C(P(=O)(O)O)P(=O)(O)O [Test Compound (b), Tris(tert-butylamine) salt of [N-(4-chlorophenyl)carbamoylmethylene]bis(phosphonic acid)]	56.9	46.6
O=P(O)(O)C(C(=S)Nc1cc2ccccc2s1)P(=O)(O)O [Test Compound (d), Disodium salt of [N-(2-benzo[b]thienyl)thiocarbamoylmethylene]bis(phosphonic acid)]	59.7	
